# Measurements published in patent publication US9827229B2, “Small molecule securinine and norsecurinine analogs and their use in cancers, inflammatory diseases and infections” (INVENIO THERAPEUTICS INC., priority 2013, dated 2017).
# Counter-ions that a name gives are not always drawn.
# System: HL60 cells
# Test: Growth of HL60 cells (IC50)
# Format: cell-based, human
# Details: Homo sapiens, HL-60, HL-60 cells, growth; no unit in head or cell (other cells of the column print uM); read-out: HL-60, IC50
# Experimental: The analogs were then tested and evaluated on the ability to affect differentiation and growth of HL60 cells.
row,SMILES,IC50 [µM]
1,COC(OC)C1CCC2N1C1C=C(C#Cc3ccc[n+]([O-])c3)C3=CC(=O)OC32C1 (stereo not shown) [INV-SZ-115-1],0.15 to 0.31
2,O=C1C=C2C(C#CCSc3ccccc3)=C[C@@H]3C[C@@]2(O1)[C@H]1CCCCN31 [INVS-MG-147B],0.625 to 1.25
3,COC(OC)C1CCC2N1C1C=C(C#CCNC(=O)CCl)C3=CC(=O)OC32C1 (stereo not shown) [INV-SZ-141-1],1.25 to 2.5
4,O=C1C=C2C(C#Cc3ccc[n+]([O-])c3)=CC3CC2(O1)C1CCCCN31 (stereo not shown) [INV-SZ-113-2],0.15 to 0.31
5,O=C1C=C2C(/C=C(\C#Cc3cc(C(F)(F)F)cc(C(F)(F)F)c3)c3cc(C(F)(F)F)cc(C(F)(F)F)c3)=C[C@@H]3C[C@@]2(O1)[C@H]1CCCCN31 [INVS-MG-149B],1.25 to 2.5
6,O=C1C=C2C(C#Cc3cc(C(F)(F)F)cc(C(F)(F)F)c3)=C[C@@H]3C[C@@]2(O1)[C@H]1CCCCN31 [INVS-MG-149B′],1.25 to 2.5
7,COC(OC)C1CCC2N1C1C=C(C#Cc3cccnc3)C3=CC(=O)OC32C1 (stereo not shown) [INV-SZ-114-1],0.07 to 0.15
8,COC(OC)[C@H]1CC[C@H]2N1[C@@H]1C=C(C#Cc3ccc(CO)cc3)C3=CC(=O)O[C@@]32C1 [INVS-MG-224A],0.156 to 0.31
9,O=C1C=C2C(C#Cc3cccc[n+]3[O-])=CC3CC2(O1)C1CCCCN31 (stereo not shown) [INV-SZ-116-1],2.5 to 5
10,CS(=O)(=O)NCC#CC1=CC2CC3(OC(=O)C=C13)C1CCCCN21 (stereo not shown) [INV-SZ-137-1],0.07 to 0.15
11,O=C1C=C2C(I)=CC3CC2(O1)C1CCC(CO)N31 (stereo not shown) [INV-SZ-140-1],0.07 to 0.15
12,CCCCCCCCC#CC1=C[C@@H]2C[C@@]3(OC(=O)C=C13)[C@H]1CCCCN21 [INVS-MG-118-IIB],2.5 to 5
13,C#CC1=C[C@@H]2C[C@@]3(OC(=O)C=C13)[C@H]1CCCCN21 [INVS-MG-207A],0.07 to 0.156
14,O=C1C=C2C(C#CCO)=CC3CC2(O1)C1CCCCN31 (stereo not shown) [INV-SZ-133-1],1.25 to 2.5
15,COC(OC)C1CCC2N1C1C=C(C#Cc3ccccc3)C3=CC(=O)OC32C1 (stereo not shown) [INV-SZ-123-2],0.37 to 0.75
16,O=C1C=C2C(C#Cc3ccc(-c4ccccc4)cc3)=C[C@@H]3C[C@@]2(O1)[C@H]1CCCCN31 [INVS-MG-169-III],0.07 to 0.156
17,O=C1C=C2C(C#Cc3ccc([N+](=O)[O-])cc3)=C[C@@H]3C[C@@]2(O1)[C@H]1CCCCN31 [INVS-MG-176B],0.31 to 0.625
18,COC(OC)C1CCC2N1C1C=C(C#Cc3ccc(N(C)C)cc3)C3=CC(=O)OC32C1 (stereo not shown) [INV-SZ-117-3],0.03 to 0.07
19,CNCC#CC1=CC2CC3(OC(=O)C=C13)C1CCCCN21 (stereo not shown) [INV-SZ-129-1],2.5 to 5
20,O=C1C=C2C(C#CCc3ccccc3)=C[C@@H]3C[C@@]2(O1)[C@H]1CCCCN31 [INVS-MG-108-IIB],0.31 to 0.625
21,O=C1C=C2C=CC3CC2(O1)C1CCCCN1O3 (stereo not shown) [INV-SZ-125-2],< 5
22,O=C1C=C2C3C=CCC2(O1)C1CCCCN1O3 (stereo not shown) [INV-SZ-125-1],< 5

# Same assay, conditions: Homo sapiens, HL-60, read-out: HL-60, IC50, HL-60 cells, growth; no unit in head or cell (other cells of the column print uM)
row,SMILES,IC50 [µM]
1,COC(OC)[C@H]1CC[C@H]2N1[C@@H]1C=C(I)C3=CC(=O)O[C@@]32C1 [INVS-MG-99B = 52B],0.156 to 0.31
2,COC(OC)[C@H]1CC[C@H]2N1[C@@H]1C=C(C#Cc3cc4ccccc4c4ccccc34)C3=CC(=O)O[C@@]32C1 [INVS-MG-220B],0.156
3,C[Si](C)(C)C#CC1=C[C@@H]2C[C@@]3(OC(=O)C=C13)[C@H]1CCCCN21 [INVS-MG-207-IIIA],1.25 to 2.5
4,COC(OC)[C@H]1CC[C@H]2N1[C@@H]1C=CC3=CC(=O)O[C@@]32C1 [INVS-MG-99D = 52D],0.31 to 0.625
5,CCN(CC)CC#CC1=C[C@@H]2C[C@@]3(OC(=O)C=C13)[C@H]1CCCCN21 [INVS-MG-145-V],0.07 to 0.156

# Same assay, conditions: read-out: HL-60, IC50; HL-60 cells, growth
row,SMILES,IC50 [µM]
1,COC(OC)[C@H]1CC[C@H]2N1[C@@H]1C=CC3=CC(=O)O[C@@]32C1 [INVS-MG-99-IVD-I],> 5

# Same assay, conditions: read-out: HL-60, IC50; HL-60 cells, growth; no unit in head or cell (other cells of the column print uM)
row,SMILES,IC50 [µM]
1,O=C1C=C2C(I)=C[C@@H]3C[C@@]2(O1)[C@H]1CCCCN31 [INVS-MG-84],> 2.5
2,O=C1C=C2C(C#Cc3cc4ccccc4c4ccccc34)=C[C@@H]3C[C@@]2(O1)[C@H]1CCCCN31 [INVS-MG-158-V],< 5
3,O=C1C=C2C(I)=C[C@@H]3C[C@@]2(O1)[C@H]1CCCCN31 [INVS-MG-82 = 12A HCl salt],> 2.5
